Molecular target: Human VPS34 (Homo sapiens (Human), UniProt Q8NEB9)
Assay: Human VPS34 enzyme assay (Adapta TR-FRET)
Assay type: biochemical
Conditions: for inhibition at 1.11 µM: read-out: Percent Inhibition

Sequence of Human VPS34 (Q8NEB9 whole entry): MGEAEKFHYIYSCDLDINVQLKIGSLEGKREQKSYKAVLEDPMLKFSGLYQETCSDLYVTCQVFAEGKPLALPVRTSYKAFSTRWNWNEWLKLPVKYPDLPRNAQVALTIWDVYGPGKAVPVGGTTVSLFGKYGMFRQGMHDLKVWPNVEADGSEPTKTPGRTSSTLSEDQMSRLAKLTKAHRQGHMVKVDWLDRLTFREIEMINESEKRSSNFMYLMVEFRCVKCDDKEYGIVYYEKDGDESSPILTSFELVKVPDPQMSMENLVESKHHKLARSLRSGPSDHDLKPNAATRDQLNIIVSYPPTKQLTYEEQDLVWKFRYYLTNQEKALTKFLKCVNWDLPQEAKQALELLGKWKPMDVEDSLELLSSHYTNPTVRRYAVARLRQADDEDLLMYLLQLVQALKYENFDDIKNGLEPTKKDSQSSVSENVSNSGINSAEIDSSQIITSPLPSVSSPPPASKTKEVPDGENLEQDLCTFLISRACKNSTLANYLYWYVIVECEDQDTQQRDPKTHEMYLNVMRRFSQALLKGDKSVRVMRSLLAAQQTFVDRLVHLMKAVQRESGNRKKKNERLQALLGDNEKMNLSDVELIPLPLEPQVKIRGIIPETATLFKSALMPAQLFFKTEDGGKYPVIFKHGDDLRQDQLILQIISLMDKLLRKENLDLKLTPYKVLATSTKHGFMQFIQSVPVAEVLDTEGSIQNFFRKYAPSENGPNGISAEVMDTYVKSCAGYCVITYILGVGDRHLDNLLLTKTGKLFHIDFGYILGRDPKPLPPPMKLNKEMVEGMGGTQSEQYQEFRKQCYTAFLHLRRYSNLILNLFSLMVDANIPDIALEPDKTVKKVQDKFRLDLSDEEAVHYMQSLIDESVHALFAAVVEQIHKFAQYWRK

| Structure (SMILES) | inhibition at 1.11 µM (compound concentration 1.11 μM) | also measured |
| --- | --- | --- |
| CCc1ccc(S(=O)(=O)Nc2cc(-c3ccnc(NC(C)=O)c3)cnc2C)cc1 [Compound I-44, N-(5-{[(4-ethylphenyl)sulfonyl]amino}-6-methyl-3,4′-bipyridin-2′-yl)acetamide] | > 99% |  |
| CC(=O)Nc1cc(-c2cnc(C)c(NS(=O)(=O)c3cccnc3)c2)ccn1 [Compound I-45, N-{6-methyl-5-[(pyridin-3-ylsulfonyl)amino]-3,4′-bipyridin-2′-yl}acetamide] | > 99% |  |
| CC(=O)Nc1cc(-c2cnc(C)c(N(C)S(=O)(=O)c3ccccc3)c2)ccn1 [Compound I-46, N-{6-methyl-5-[methyl(phenylsulfonyl)amino]-3,4′-bipyridin-2′-yl}acetamide] | > 99% |  |
| CC(=O)Nc1cc(-c2cncc(S(=O)(=O)N3CCCC3)c2)ccn1 [Compound I-47, N-[5-(pyrrolidin-1-ylsulfonyl)-3,4′-bipyridin-2′-yl]acetamide] | > 99% |  |
| CC(=O)Nc1cc(-c2cncc(C(=O)N(C)C)c2)ccn1 [Compound I-48, 2′-acetamido-N,N-dimethyl-3,4′-bipyridine-5-carboxamide] | > 99% |  |
| CC(=O)Nc1cc(-c2cnc(N)c(S(=O)(=O)NCC3CC3)c2C)ccn1 [Compound I-49, N-{6-amino-5-[(cyclopropylmethyl)sulfamoyl]-4-methyl-3,4′-bipyridin-2′-yl}acetamide] | > 99% |  |
| CC(=O)Nc1cc(-c2cnc(N)c(S(=O)(=O)Cc3ccccc3C(F)(F)F)c2)ccn1 [Compound I-50, N-(6-amino-5-{[2-(trifluoromethyl)benzyl]sulfonyl}-3,4′-bipyridin-2′-yl)acetamide] | > 99% |  |
| CC(=O)Nc1cc(-c2cnc(C)c(NS(=O)(=O)c3cc(F)ccc3F)c2)ccn1 [Compound I-52] | > 99% |  |
| CC(=O)Nc1cc(-c2cnc(NCC3CC3)c(N)c2)ccn1 [Compound I-53, N-{5-amino-6-[(cyclopropylmethyl)amino]-3,4′-bipyridin-2′-yl}acetamide] | 67% |  |
| COC(=O)Nc1cc(-c2cnc(N)c(C(=O)N(C)C)c2)ccn1 [Compound I-55, methyl [6-amino-5-(dimethylcarbamoyl)-3,4′-bipyridin-2′-yl]carbamate] | > 99% |  |
| CC(=O)Nc1cc(-c2cnc(Cl)c(NS(=O)(=O)c3ccccc3)c2)c(C)cn1 [Compound I-56, N-{6-chloro-5′-methyl-5-[(phenylsulfonyl)amino]-3,4′-bipyridin-2′-yl}acetamide] | > 99% |  |
| COc1cc(F)ccc1S(=O)(=O)Nc1cc(-c2ccnc(NC(C)=O)c2)cnc1C [Compound I-58, N-(5-{[(4-fluoro-2-methoxyphenyl)sulfonyl]amino}-6-methyl-3,4′-bipyridin-2′-yl)acetamide] | > 99% |  |
| CC(=O)Nc1cc(-c2cnc(N)c(S(N)(=O)=O)c2)ccn1 [Compound I-61, N-(6-amino-5-sulfamoyl-3,4′-bipyridin-2′-yl)acetamide] | 95% |  |
| CC(=O)Nc1cc(-c2cnc(N)c(NS(=O)(=O)c3ccc(F)cc3F)c2)ccn1 [Compound I-64, N-(6-amino-5-{[(2,4-difluorophenyl)sulfonyl]amino}-3,4′-bipyridin-2′-yl)acetamide] | > 99% | IC50 (IC50 range class): < 10 nM |
| CC(=O)Nc1cc(-c2cnc3[nH]c(C)nc3c2)ccn1 [Compound I-66, N-[4-(2-methyl-3H-imidazo[4,5-b]pyridin-6-yl)pyridin-2-yl]acetamide] | 88% |  |
| CC(=O)Nc1cc(-c2cnc3c(c2)NS(=O)(=O)N3CC2CC2)ccn1 [Compound I-68, N-{4-[3-(cyclopropylmethyl)-2,2-dioxido-1,3-dihydro[1,2,5]thiadiazole[3,4-b]pyridin-6-yl]pyridin-2-yl}acetamide] | 98% |  |
| CC(=O)Nc1cc(-c2cnc(C)c(NS(=O)(=O)c3cccc(C(C)(C)C)c3)c2)ccn1 [Compound I-70, N-(5-{[(3-tert-butylphenyl)sulfonyl]amino}-6-methyl-3,4′-bipyridin-2′-yl)acetamide] | > 99% |  |
| CC(=O)Nc1cc(-c2cnc(N)c(C(=O)N3CCc4ccccc43)c2)ccn1 [Compound I-71, N-[6-amino-5-(2,3-dihydro-1H-indol-1-ylcarbonyl)-3,4′-bipyridin-2′-yl]acetamide] | > 99% |  |
| CC(=O)Nc1cc(-c2cnc(C)c(NS(=O)(=O)C3CCCCC3)c2)ccn1 [Compound I-72, N-{5-[(cyclohexylsulfonyl)amino]-6-methyl-3,4′-bipyridin-2′-yl}acetamide] | > 99% |  |
| CC(=O)Nc1cc(-c2cnc(N)c(S(=O)(=O)NCC(C)C)c2)ccn1 [Compound I-73, N-[6-amino-5-(isobutylsulfamoyl)-3,4′-bipyridin-2′-yl]acetamide] |  | Percent Inhibition (compound concentration 1.11 μM): >99% |
| CC(=O)Nc1cc(-c2cnc(C)c(C(=O)N(C)C)c2)ccn1 [Compound I-75, 2′-acetamido-N,N,6-trimethyl-3,4′-bipyridine-5-carboxamide] | > 99% |  |
| CC(=O)Nc1cc(-c2cnc(N)c(S(=O)(=O)N(C)Cc3ccccc3)c2)ccn1 [Compound I-76] | > 99% |  |
| CC(=O)Nc1cc(-c2cnc(C)c(NS(=O)(=O)c3cccc4ccccc34)c2)ccn1 [Compound I-78, N-{6-methyl-5-[(1-naphthylsulfonyl)amino]-3,4′-bipyridin-2′-yl}acetamide] | > 99% |  |
| CC(=O)Nc1cc(-c2cnc(N)c(C(=O)N3CCN(C)CC3)c2)ccn1 [Compound I-79, N-{6-amino-5-[(4-methylpiperazin-1-yl)carbonyl]-3,4′-bipyridin-2′-yl}acetamide] | > 99% |  |
| CC(=O)Nc1cc(-c2cnc(N)c(C(=O)N3CCC(C)CC3)c2)ccn1 [Compound I-81, N-{6-amino-5-[(4-methylpiperidin-1-yl)carbonyl]-3,4′-bipyridin-2′-yl}acetamide] | > 99% |  |
| CC(=O)Nc1cc(-c2cnc(C)c(NS(=O)(=O)c3ccccc3)c2)ccn1 [Compound I-84, N-{6-methyl-5-[(phenylsulfonyl)amino]-3,4′-bipyridin-2′-yl}acetamide] | > 99% |  |

More lines, main results first:

| inhibition at 1.11 µM (compound concentration 1.11 μM) | Structure (SMILES) | also measured |
| --- | --- | --- |
| > 99% | COC(=O)Nc1cc(-c2cnc3ccn(CC4CC4)c3c2)ccn1 [Compound I-42, Methyl {4-[1-(cyclopropylmethyl)-1H-pyrrolo[3,2-b]pyridin-6-yl]pyridin-2-yl}carbamate] |  |
| > 99% | CC(=O)Nc1cc(-c2cnc(N)c(S(=O)(=O)Nc3ccccc3)c2)ccn1 [Compound I-43, N-[6-amino-5-(phenylsulfamoyl)-3,4′-bipyridin-2′-yl]acetamide] |  |
| 91% | CC(=O)Nc1cc(-c2cncc(S(C)(=O)=O)c2)ccn1 [Compound I-51, N-[5-(methylsulfonyl)-3,4′-bipyridin-2′-yl]acetamide] |  |
| 83% | CC(=O)Nc1cc(-c2cnc3[nH]cc(CN4CCCC4)c3c2)ccn1 [Compound I-54, N-{4-[3-(pyrrolidin-1-ylmethyl)-1H-pyrrolo[2,3-b]pyridin-5-yl]pyridin-2-yl}acetamide] |  |
| > 99% | CNC(=O)c1cc(-c2ccnc(NC(C)=O)c2)cnc1N [Compound I-57, 2′-acetamido-6-amino-N-methyl-3,4′-bipyridine-5-carboxamide] |  |
| > 99% | CC(=O)Nc1cc(-c2cnc(C)c(NS(=O)(=O)c3ccc(F)c(F)c3)c2)ccn1 [Compound I-59, N-(5-{[(3,4-difluorophenyl)sulfonyl]amino}-6-methyl-3,4′-bipyridin-2′-yl)acetamide] |  |
| > 99% | CC(=O)Nc1cc(-c2cnc(N)c(C(=O)N3CCC(F)(F)C3)c2)ccn1 [Compound I-60, N-{6-amino-5-[(3,3-difluoropyrrolidin-1-yl)carbonyl]-3,4′-bipyridin-2′-yl}acetamide] |  |
| > 99% | CC(=O)Nc1cc(-c2cnc(C)c(NS(=O)(=O)c3ccccc3C(F)(F)F)c2)ccn1 [Compound I-62, N-[6-methyl-5-({[2-(trifluoromethyl)phenyl]sulfonyl}amino)-3,4′-bipyridin-2′-yl]acetamide] |  |
| > 99% | CNc1ncc(-c2ccnc(NC(C)=O)c2)cc1S(=O)(=O)Nc1ccc(F)cc1F [Compound I-63, N-{5-[(2,4-difluorophenyl)sulfamoyl]-6-(methylamino)-3,4′-bipyridin-2′-yl}acetamide] |  |
| 93% | CC(=O)Nc1cc(-c2cnc(NCC3CC3)c(NCC3CC3)c2)ccn1 [Compound I-65, N-{5,6-bis[(cyclopropylmethyl)amino]-3,4′-bipyridin-2′-yl}acetamide] |  |
| > 99% | CC(=O)Nc1cc(-c2cnc3c(c2)CCN3)ccn1 [Compound I-67, N-[4-(2,3-dihydro-1H-pyrrolo[2,3-b]pyridin-5-yl)pyridin-2-yl]acetamide] |  |
| > 99% | CCS(=O)(=O)c1cc(-c2ccnc(NC(C)=O)c2)cnc1N [Compound I-69, N-[6-amino-5-(ethylsulfonyl)-3,4′-bipyridin-2′-yl]acetamide] |  |
| > 99% | COc1ccccc1S(=O)(=O)Nc1cc(-c2ccnc(NC(C)=O)c2)cnc1C [Compound I-74, N-(5-{[(2-methoxyphenyl)sulfonyl]amino}-6-methyl-3,4′-bipyridin-2′-yl)acetamide] |  |
| > 99% | CC(=O)Nc1cc(-c2cnc(N)c(S(=O)(=O)N(C(C)C)C(C)C)c2)ccn1 [Compound I-77, N-[6-amino-5-(diisopropylsulfamoyl)-3,4′-bipyridin-2′-yl]acetamide] |  |
| > 99% | CC(=O)Nc1cc(-c2cnc(C)c(NS(=O)(=O)c3ccc(C)cc3)c2)ccn1 [Compound I-80, N-(6-methyl-5-{[(4-methylphenyl)sulfonyl]amino}-3,4′-bipyridin-2′-yl)acetamide] |  |
| > 99% | CC(=O)Nc1cc(-c2cnc(N)c(C(=O)Nc3cccc(F)c3)c2)ccn1 [Compound I-82, 2′-acetamido-6-amino-N-(3-fluorophenyl)-3,4′-bipyridine-5-carboxamide] |  |
| 82% | CC(=O)Nc1cc(-c2cnc(C)c(N(CC3CC3)S(=O)(=O)C3CC3)c2)ccn1 [Compound I-83, N-{5-[(cyclopropylmethyl)(cyclopropylsulfonyl)amino]-6-methyl-3,4′-bipyridin-2′-yl}acetamide] |  |
